Reference: patent US4868321A, “Isothiocyanate intermediates” (FMC Corporation, priority 1988, dated 1989)

Tests used:
Type in all cases: in vivo
Cotton [1] = experiment: Preemergence Herbicidal Activity, Cotton; conditions: Gossypium hirsutum, pre-emergence, 1.0 kg/ha
Method in brief: (§1)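 Read-out is percent control (% C) at application rates expressed in kilograms per hectare. Compounds were generally delivered in a 50/50 acetone/water solution, either before emergence or onto emerged plants.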

Soybean [2] = experiment: Preemergence Herbicidal Activity, Soybean; conditions: Glycine max, pre-emergence, 1.0 kg/ha
Method in brief: (§2)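 Compounds were applied at rates given in kilograms per hectare, and herbicidal effect was scored as percent control.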

Field Corn [3] = experiment: Preemergence Herbicidal Activity, Field Corn; conditions: Zea mays, pre-emergence, 1.0 kg/ha
Method in brief: as §2

Rice [4] = experiment: Preemergence Herbicidal Activity, Rice; conditions: Oryza sativa, pre-emergence, 1.0 kg/ha
Method in brief: as §2

Wheat [5] = experiment: Preemergence Herbicidal Activity, Wheat; conditions: Triticum aestivum, pre-emergence, 1.0 kg/ha
Method in brief: as §2

Field Bindweed [6] = experiment: Preemergence Herbicidal Activity, Field Bindweed; conditions: pre-emergence, 1.0 kg/ha
Method in brief: as §1

Morningglory [7] = experiment: Preemergence Herbicidal Activity, Morningglory; conditions: Ipomoea, pre-emergence, 1.0 kg/ha
Method in brief: as §1

Velvetleaf [8] = experiment: Preemergence Herbicidal Activity, Velvetleaf; conditions: Abutilon theophrasti, pre-emergence, 1.0 kg/ha
Method in brief: as §1

Barnyardgrass [9] = experiment: Preemergence Herbicidal Activity, Barnyardgrass; conditions: Echinochloa crus-galli, pre-emergence, 1.0 kg/ha
Method in brief: (§3)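 Herbicidal response was graded as percent control. Compound rates were in kg/ha.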

Green Foxtail [10] = experiment: Preemergence Herbicidal Activity, Green Foxtail; conditions: Setaria viridis, pre-emergence, 1.0 kg/ha
Method in brief: as §3

Johnsongrass [11] = experiment: Preemergence Herbicidal Activity, Johnsongrass; conditions: Sorghum halepense, pre-emergence, 1.0 kg/ha
Method in brief: as §3

Cotton [12] = experiment: Postemergence Herbicidal Activity, Cotton; conditions: Gossypium hirsutum, post-emergence, 1.0 kg/ha
Method in brief: as §1

Soybean [13] = experiment: Postemergence Herbicidal Activity, Soybean; conditions: Glycine max, post-emergence, 1.0 kg/ha
Method in brief: as §2

Field Corn [14] = experiment: Postemergence Herbicidal Activity, Field Corn; conditions: Zea mays, post-emergence, 1.0 kg/ha
Method in brief: as §2

Rice [15] = experiment: Postemergence Herbicidal Activity, Rice; conditions: Oryza sativa, post-emergence, 1.0 kg/ha
Method in brief: as §2

Wheat [16] = experiment: Postemergence Herbicidal Activity, Wheat; conditions: Triticum aestivum, post-emergence, 1.0 kg/ha
Method in brief: as §2

Field Bindweed [17] = experiment: Postemergence Herbicidal Activity, Field Bindweed; conditions: post-emergence, 1.0 kg/ha
Method in brief: as §1

Morningglory [18] = experiment: Postemergence Herbicidal Activity, Morningglory; conditions: Ipomoea, post-emergence, 1.0 kg/ha
Method in brief: as §1

Velvetleaf [19] = experiment: Postemergence Herbicidal Activity, Velvetleaf; conditions: Abutilon theophrasti, post-emergence, 1.0 kg/ha
Method in brief: as §1

Barnyardgrass [20] = experiment: Postemergence Herbicidal Activity, Barnyardgrass; conditions: Echinochloa crus-galli, post-emergence, 1.0 kg/ha
Method in brief: as §3

Green Foxtail [21] = experiment: Postemergence Herbicidal Activity, Green Foxtail; conditions: Setaria viridis, post-emergence, 1.0 kg/ha
Method in brief: as §3

Johnsongrass [22] = experiment: Postemergence Herbicidal Activity, Johnsongrass; conditions: Sorghum halepense, post-emergence, 1.0 kg/ha
Method in brief: as §3

cotton or soybeans = experiment: preemergence crop selectivity; conditions: rates below about 1/4 or 1/10 kg/ha

CCCN(c1cc(-n2nnn(CCCF)c2=O)c(F)cc1Cl)S(=O)(=O)CC [Compound 14]
plant injury at 1000 g/ha (Cotton [1]): 100%
plant injury at 1000 g/ha (Soybean [2]): 95%
plant injury at 1000 g/ha (Field Corn [3]): 100%
plant injury at 1000 g/ha (Rice [4]): 100%
plant injury at 1000 g/ha (Wheat [5]): 100%
pest or weed control at 1000 g/ha (Field Bindweed [6]): 100%
pest or weed control at 1000 g/ha (Morningglory [7]): 100%
pest or weed control at 1000 g/ha (Velvetleaf [8]): 100%
pest or weed control at 1000 g/ha (Barnyardgrass [9]): 100%
pest or weed control at 1000 g/ha (Green Foxtail [10]): 100%
pest or weed control at 1000 g/ha (Johnsongrass [11]): 100%
plant injury at 1000 g/ha (Cotton [12]): 100%
plant injury at 1000 g/ha (Soybean [13]): 100%
plant injury at 1000 g/ha (Field Corn [14]): 100%
plant injury at 1000 g/ha (Rice [15]): 100%
plant injury at 1000 g/ha (Wheat [16]): 100%
pest or weed control at 1000 g/ha (Field Bindweed [17]): 100%
pest or weed control at 1000 g/ha (Morningglory [18]): 100%
pest or weed control at 1000 g/ha (Velvetleaf [19]): 100%
pest or weed control at 1000 g/ha (Barnyardgrass [20]): 100%
pest or weed control at 1000 g/ha (Green Foxtail [21]): 100%
pest or weed control at 1000 g/ha (Johnsongrass [22]): 100%
herbicide selectivity (cotton or soybeans): highly selective
